Results as given in publication PMC6273226, “New Isoxazolidine-Conjugates of Quinazolinones—Synthesis, Antiviral and Cytostatic Activity” (Molecules, 2016).
Like-named read-outs stand apart in the source and are kept apart here.

Assays:
murine leukemia L1210 = assay: Cytostatic activity, inhibition of L1210 cell proliferation; format: cell-based; details: Mus musculus, L1210, 48 h, read-out: IC50 L1210
Procedure: (§1) The 50% cytostatic inhibitory concentration (IC50) causing a 50% decrease in cell proliferation was determined against murine leukemia L1210, human lymphocyte CEM, human cervix carcinoma HeLa and immortalized human dermal microvacsular endothelial cells (HMEC-1).
(§2) Murine leukemia (L1210), human T-lymphocyte (CEM), human cervix carcinoma (HeLa) and immortalized human dermal microvascular endothelial cells (HMEC-1) were suspended at 300,000–500,000 cells/mL of culture medium, and 100 μL of a cell suspension was added to 100 μL of an appropriate dilution of the test compounds in 200 μL-wells of 96-well microtiter plates. After incubation at 37 °C for two (L1210), three (CEM) or four (HeLa) days, the cell number was determined using a Coulter counter. The IC50 was defined as the compound concentration required to inhibit cell proliferation by 50%.

[1] = tested on: human cervix carcinoma (HeLa); assay: Cytostatic activity, inhibition of HeLa cell proliferation; format: cell-based; details: 96 h, read-out: IC50 HeLa
Procedure: as §1, §2

[2] = tested on: L1210, CEM, HeLa and HMEC-1 cells; assay: Cytostatic activity against the tested cell lines (L1210, CEM, HeLa, HMEC-1), summarised in text; format: cell-based; details: for inhibition of cell proliferation at the highest tested concentration: highest tested concentration 250 μM, L1210, CEM
Procedure: as §1, §2

human T-lymphocyte (CEM) = assay: Cytostatic activity, inhibition of CEM cell proliferation; format: cell-based; details: 72 h, read-out: IC50 CEM
Procedure: as §1, §2

[3] = tested on: immortalized human dermal microvascular endothelial cells (HMEC-1); assay: Cytostatic activity, inhibition of HMEC-1 cell proliferation; format: cell-based; details: inhibition of cell proliferation by 50%
Procedure: as §1, §2

[4] = tested on: human cytomegalovirus AD-169 strain; assay: Antiviral activity against human cytomegalovirus AD-169 strain in HEL cell cultures; format: cell-based; details: Human betaherpesvirus 5, AD169
[5] = tested on: human cytomegalovirus Davis strain; assay: Antiviral activity against human cytomegalovirus Davis strain in HEL cell cultures; format: cell-based; details: Human betaherpesvirus 5
human cytomegalovirus = assay: Antiviral activity against human cytomegalovirus, strain not given (AD-169 and Davis); format: cell-based; details: Human betaherpesvirus 5; range given for four compounds, strain not specified
TK+ VZV Oka strain = assay: microbe, parasite or virus in culture; format: cell-based, varicella-zoster virus; details: Human alphaherpesvirus 3, HEL, read-out: Antiviral Activity EC50 TK+ VZV Strain
[6] = tested on: human embryonic lung (HEL) cells; details: for Cytotoxicity Cell Morphology MCC: HEL cell cultures, minimum cytotoxic concentration; for cytotoxicity toward uninfected cells: at concentration up to 100 μM
TK- VZV 07-1 strain = assay: microbe, parasite or virus in culture; format: cell-based, varicella-zoster virus; details: for EC50: Human alphaherpesvirus 3, HEL, read-out: Antiviral Activity EC50 TK- VZV Strain; for activity toward TK- VZV strain: result in words
[7] = tested on: tobacco mosaic virus (TMV); design: method as in PMID 23962399; details: ref [30]; cited from earlier work
[8] = tested on: various cancer cell lines; design: method as in doi:10.1002/hlca.201200433, PMID 21495659; details: ref [31],[32]; cited from earlier work
Vero cells = tested on: Vero cells; design: method as in doi:10.1016/j.phytol.2015.02.007; details: ref [33]; cited from earlier work
influenza A virus = tested on: influenza A virus; design: method as in PMID 26017319; details: ref [34]; cited from earlier work

Compound	IC50 (murine leukemia L1210)	IC50 [1]	IC50 (human T-lymphocyte (CEM))	IC50 [3]	EC50 (TK+ VZV Oka strain)	Cytotoxicity Cell Morphology MCC ([6]; Table 2 (VZV))	EC50 (TK- VZV 07-1 strain)	also measured
CCOP(=O)(OCC)[C@H]1C[C@H](c2nc3ccccc3c(=O)[nH]2)ON1C (relative stereo) [trans-11a, Diethyl trans-(2-methyl-5-(4-oxo-3,4-dihydroquinazolin-2-yl)isoxazolidin-3-yl)phosphonate]	> 250 µM	> 250 µM	> 250 µM	> 250 µM	–	–	–	inhibition of cell proliferation at the highest tested concentration [2]: did not inhibit cell proliferation
CCOP(=O)(OCC)[C@H]1C[C@H](c2nc3ccccc3c(=O)n2Cc2ccccc2)ON1C (relative stereo) [trans-11b/cis-11b (90:10), Diethyl trans-(5-(3-benzyl-4-oxo-3,4-dihydroquinazolin-2-yl)-2-methylisoxazolidin-3-yl)phosphonate]	49 ± 23 µM	82 ± 5 µM	28 ± 4 µM	83 ± 16 µM	–	–	–	EC50 [4]: 44.7 µM; EC50 [5]: > 20 µM; EC50 (human cytomegalovirus): 27 to 45 µM
CCOP(=O)(OCC)[C@H]1C[C@H](c2nc3ccccc3c(=O)n2Cc2ccccc2[N+](=O)[O-])ON1C (relative stereo) [trans-11c, Diethyl trans-(2-methyl-5-(3-(2-nitrobenzyl)-4-oxo-3,4-dihydroquinazolin-2-yl)isoxazolidin-3-yl)-phosphonate]	87 ± 22 µM	97 µM	76 ± 9 µM	92 ± 1 µM	46.5 µM	>100 μM	100 µM	EC50 [4]: > 100 µM; EC50 [5]: 44.7 µM; EC50 (human cytomegalovirus): 27 to 45 µM
CCOP(=O)(OCC)[C@H]1C[C@H](c2nc3ccccc3c(=O)n2Cc2cccc([N+](=O)[O-])c2)ON1C (relative stereo) [trans-11d/cis-11d (90:10), Diethyl trans-(2-methyl-5-(3-(3-nitrobenzyl)-4-oxo-3,4-dihydroquinazolin-2-yl)isoxazolidin-3-yl)-phosphonate]	28 ± 11 µM	50 ± 4 µM	21 ± 4 µM	58 µM	–	–	–	–
CCOP(=O)(OCC)[C@H]1C[C@H](c2nc3ccccc3c(=O)n2Cc2ccc([N+](=O)[O-])cc2)ON1C (relative stereo) [trans-11e/cis-11e (90:10), Diethyl trans-(2-methyl-5-(3-(4-nitrobenzyl)-4-oxo-3,4-dihydroquinazolin-2-yl)isoxazolidin-3-yl)-phosphonate]	59 ± 32 µM	76 ± 4 µM	34 ± 12 µM	102 ± 3 µM	34.2 µM	100 μM	42.9 µM	EC50 [4]: 44.7 µM; EC50 [5]: 20 µM; EC50 (human cytomegalovirus): 27 to 45 µM
CCOP(=O)(OCC)[C@H]1C[C@H](c2nc3ccccc3c(=O)n2Cc2ccccc2F)ON1C (relative stereo) [trans-11f/cis-11f (90:10), Diethyl trans-(5-(3-(2-fluorobenzyl)-4-oxo-3,4-dihydroquinazolin-2-yl)-2-methylisoxazolidin-3-yl)-phosphonate]	33 ± 7 µM	76 ± 11 µM	29 ± 13 µM	77 µM	6.84 µM	100 μM	> 20 µM	cytotoxicity toward uninfected cells [6]: without exhibiting cytotoxicity; activity toward TK- VZV strain (TK- VZV 07-1 strain): no activity
CCOP(=O)(OCC)[C@H]1C[C@H](c2nc3ccccc3c(=O)n2Cc2cccc(F)c2)ON1C (relative stereo) [trans-11g, Diethyl trans-(5-(3-(3-fluorobenzyl)-4-oxo-3,4-dihydroquinazolin-2-yl)-2-methylisoxazolidin-3-yl)-phosphonate]	35 ± 12 µM	62 ± 9 µM	26 ± 6 µM	74 ± 3 µM	–	–	–	EC50 [4]: > 100 µM; EC50 [5]: 27.6 µM; EC50 (human cytomegalovirus): 27 to 45 µM
CCOP(=O)(OCC)[C@H]1C[C@H](c2nc3ccccc3c(=O)n2Cc2ccc(F)cc2)ON1C (relative stereo) [trans-11h, Diethyl trans-(5-(3-(4-fluorobenzyl)-4-oxo-3,4-dihydroquinazolin-2-yl)-2-methylisoxazolidin-3-yl)-phosphonate]	26 ± 1 µM	58 ± 5 µM	30 ± 12 µM	78 ± 1 µM	15.3 µM	100 μM	> 20 µM	cytotoxicity toward uninfected cells [6]: without exhibiting cytotoxicity; activity toward TK- VZV strain (TK- VZV 07-1 strain): no activity
CCOP(=O)(OCC)[C@H]1C[C@H](c2nc3ccccc3c(=O)n2Cc2ccc(F)cc2F)ON1C (relative stereo) [trans-11i/cis-11i (97:3), Diethyl trans-(5-(3-(2,4-difluorobenzyl)-4-oxo-3,4-dihydroquinazolin-2-yl)-2-methylisoxazolidin-3-yl)-phosphonate]	26 ± 2 µM	55 ± 10 µM	24 ± 8 µM	67 ± 4 µM	9.44 µM	100 μM	> 20 µM	cytotoxicity toward uninfected cells [6]: without exhibiting cytotoxicity; activity toward TK- VZV strain (TK- VZV 07-1 strain): no activity
CCOP(=O)(OCC)[C@H]1C[C@H](c2nc3ccccc3c(=O)n2C)ON1C (relative stereo) [trans-11j, Diethyl trans-(2-methyl-5-(3-methyl-4-oxo-3,4-dihydroquinazolin-2-yl)isoxazolidin-3-yl)phosphonate]	> 250 µM	> 250 µM	> 250 µM	> 250 µM	–	–	–	inhibition of cell proliferation at the highest tested concentration [2]: did not inhibit cell proliferation
CCOP(=O)(OCC)[C@H]1C[C@H](c2nc3ccccc3c(=O)n2CC)ON1C (relative stereo) [trans-11k/cis-11k (97:3), Diethyl trans-(5-(3-ethyl-4-oxo-3,4-dihydroquinazolin-2-yl)-2-methylisoxazolidin-3-yl)phosphonate]	101 ± 17 µM	97 ± 10 µM	85 ± 13 µM	86 ± 11 µM	38.8 µM	>100 μM	41.6 µM	IC50 ([2]; range over L1210, CEM, read-out: IC50 towards the tested cell lines): 85 to 101 µM
O=c1[nH]cc(F)c(=O)[nH]1 [5-Fluorouracil, reference compound]	–	–	–	–	–	–	–	IC50 (murine leukemia L1210; inhibition of cell proliferation by 50%, two days incubation): 0.33 ± 0.17 µM; IC50 ([1]; inhibition of cell proliferation by 50%, four days incubation): 0.54 ± 0.12 µM; IC50 (human T-lymphocyte (CEM); inhibition of cell proliferation by 50%, three days incubation): 18 ± 5 µM
O=c1[nH]c(=O)n([C@H]2C[C@H](O)[C@@H](CO)O2)cc1/C=C/Br [Brivudin, reference compound]	–	–	–	–	0.019 µM	>100 μM	25.6 µM	–
Nc1ccn(C[C@@H](CO)OCP(=O)(O)O)c(=O)n1 [Cidofovir, reference compound]	–	–	–	–	–	–	–	EC50 [4]: 1.49 µM; EC50 [5]: 0.23 µM; Cytotoxicity Cell Morphology MCC ([6]; Table 3 (HCMV)): >300 μM
O=c1[nH]c(Cc2ccc(O)cc2)nc2ccccc12 [Compound 1, 2-(4-hydroxybenzyl)quinazolin-4(3H)-one]	–	–	–	–	–	–	–	inhibitory properties on the replication of tobacco mosaic virus (TMV) [7]: strong inhibitory properties; cytotoxicity toward various cancer cell lines [8]: significant cytotoxicity
O=C(c1ccc(O)cc1)c1nc2ccccc2c(=O)[nH]1 [Compound 2]	–	–	–	–	–	–	–	inhibitory properties on the replication of tobacco mosaic virus (TMV) [7]: only slightly active; melting point: 67 to 68 °C
O=c1[nH]c(-c2c[nH]c3ccccc23)nc2ccccc12 [Compound 3]	–	–	–	–	–	–	–	cytotoxicity against Vero cells (Vero cells): cytotoxic
O=c1[nH]c(-c2ccncc2)nc2ccccc12 [Compound 4]	–	–	–	–	–	–	–	activity against influenza A virus (influenza A virus): slight activity
O=c1c2ccccc2nc(-c2ccncc2)n1CCCN1CCOCC1 [Compound 5]	–	–	–	–	–	–	–	activity against influenza A virus (influenza A virus): slight activity
O=c1c2ccccc2nc(-c2ccncc2)n1CCCn1ccnc1 [Compound 6]	–	–	–	–	–	–	–	activity against influenza A virus (influenza A virus): slight activity
Nc1nc(O)c2ncn(COC(CO)CO)c2n1 [Ganciclovir, reference compound]	–	–	–	–	–	–	–	EC50 [4]: 10.5 µM; EC50 [5]: 0.63 µM; Cytotoxicity Cell Morphology MCC ([6]; Table 3 (HCMV)): >350 μM
